The source made the active and inactive calls. The rule behind the calls is not given here.

In one test the test system is MRC5. Description: Cytotoxicity against human MRC5 cells assessed as reduction in cell survival after 72 hrs by MTT assay. Type of test: cell-based. Conditions: MRC5, 72 h. Background: Formazan colour is commonly taken as a measure of viable cells.
The nature of test [1]: Cytotoxicity against human LS174 cells assessed as reduction in cell survival after 72 hrs by MTT assay. It counts as functional, cell-based. Conditions: LS174, 72 h.
The subject of test [2] is HeLa. Description: Cytotoxicity against human HeLa cells assessed as reduction in cell survival after 72 hrs by MTT assay. Type of test: functional, cell-based.
Test [3] concerns A549. Description: Cytotoxicity against human A549 cells assessed as reduction in cell survival after 72 hrs by MTT assay. It counts as functional, cell-based. Conditions: A549, 72 h.
The subject of test [4] is Escherichia coli. Description: Inhibition of Fe(2+)-induced DNA cleavage of Escherichia coli pUC19 at 1:1 compound to iron ratio by agarose gel elctrophoresis method.
Test [5] relates to Escherichia coli. Kind of test: Inhibition of Fe(2+)-induced DNA cleavage of Escherichia coli pUC19 at 1:2 compound to iron ratio by agarose gel elctrophoresis method.
Test [6] has as its system Calf thymus DNA. Kind of test: Binding affinity to calf thymus DNA assessed as binding constant at 20 to 60 uM by spectroscopy. Type of test: nucleic-acid assay. The note with it: Bos taurus.
The species named for test [7] is Bos taurus. Kind of test: Displacement of Hoechst 33258 from calf thymus DNA at 30 to 60 uM by spectroscopy.
Test [8] has as its system A549. Description: Induction of apoptosis in human A549 cells assessed as caspase-3 activation at cytotoxic IC50 level after 24 hrs by Western blotting method. Type of test: functional, cell-based. Background: Immunoblotting shows a protein as a band on a membrane.
Test [9] relates to HeLa. Kind of test: Induction of cell cycle arrest in human HeLa cells assessed as accumulation at S phase at 2 times cytotoxic IC50 level after 24 hrs by propidium iodide staining based flow cytometry (reference value: 14.5%). Type of test: functional. Background: Flow cytometry measures light scatter and fluorescence of single cells or particles in a stream.
In test [10] the test system is HeLa. Description: Induction of caspase-3 activation in human HeLa cells assessed as increase in spectrin cleavage product level at cytotoxic IC50 level after 24 hrs by Western blotting method. It counts as functional, cell-based.
Test [11] relates to Calf thymus DNA. Kind of test: Binding affinity to calf thymus DNA assessed as hyperchromism at 20 to 60 uM by spectroscopy. Type of test: nucleic-acid assay. The note with it: Bos taurus.
In test [12] the test system is HeLa. Description: Induction of cell cycle arrest in human HeLa cells assessed as accumulation at G1 phase at cytotoxic IC50 level after 24 hrs by propidium iodide staining based flow cytometry (reference value: 51.33%). Type of test: functional.
Test [13] deals with Escherichia coli. Kind of test: Induction of DNA cleavage of Escherichia coli pUC19 at 2 mM by agarose gel elctrophoresis method.
For test [14], the system named is HeLa. Kind of test: Induction of apoptosis in human HeLa cells assessed as caspase-3 activation at cytotoxic IC50 level after 24 hrs by Western blotting method. Type of test: functional, cell-based.
The subject of test [15] is HeLa. Description: Induction of apoptosis in human HeLa cells assessed as increase in p18 Bax level at cytotoxic IC50 level after 24 hrs by Western blotting method. It counts as functional, cell-based.
For test [16], the system named is HeLa. Kind of test: Induction of cell cycle arrest in human HeLa cells assessed as accumulation at G2/M phase at cytotoxic IC50 level after 24 hrs by propidium iodide staining based flow cytometry (reference value: 24.77%). It counts as functional.
Test [17] has as its system HeLa. Kind of test: Induction of cell cycle arrest in human HeLa cells assessed as accumulation at subG1 phase at 2 times cytotoxic IC50 level after 24 hrs by propidium iodide staining based flow cytometry (reference value: 2.53%). It counts as functional.
Test [18] deals with HeLa. Description: Induction of cell cycle arrest in human HeLa cells assessed as accumulation at G2/M phase at 2 times cytotoxic IC50 level after 24 hrs by propidium iodide staining based flow cytometry (reference value: 24.77%). Type of test: functional.
The species entered for test [19] is Bos taurus. Kind of test: Displacement of ethidium bromide from calf thymus DNA at 30 to 60 uM by spectroscopy.
For test [20], the species on record is Bos taurus. Kind of test: Displacement of Hoechst 33258 from calf thymus DNA at 30 to 60 uM by spectroscopy relative to control.
For test [21], the system named is HeLa. Kind of test: Induction of cell cycle arrest in human HeLa cells assessed as accumulation at S phase at cytotoxic IC50 level after 24 hrs by propidium iodide staining based flow cytometry (reference value: 14.5%). It counts as functional.
Test [22] concerns A549. Kind of test: Induction of apoptosis in human A549 cells assessed as increase in p18 Bax level at cytotoxic IC50 level after 24 hrs by Western blotting method. Type of test: functional, cell-based.
In test [23] the test system is HeLa. Kind of test: Induction of cell cycle arrest in human HeLa cells assessed as accumulation at subG1 phase at cytotoxic IC50 level after 24 hrs by propidium iodide staining based flow cytometry (reference value: 2.53%). It counts as functional.
The test system of test [24] is HeLa. Description: Induction of cell cycle arrest in human HeLa cells assessed as accumulation at G1 phase at 2 times cytotoxic IC50 level after 24 hrs by propidium iodide staining based flow cytometry (reference value: 51.33%). Type of test: functional.
Test [25] deals with A549. Kind of test: Induction of caspase-3 activation in human A549 cells assessed as increase in spectrin cleavage product level at cytotoxic IC50 level after 24 hrs by Western blotting method. It counts as functional, cell-based.

For orientation: IC50 means the concentration at which inhibition is half-maximal. On to `O=C(/C=C/c1ccc(/C=C/C(=O)c2cccc3c2C(=O)c2ccccc2C3=O)cc1)c1ccccc1F`, for which the IC50 is 31.5 µM with MRC5, 17.8 µM in [1], 2.66 µM with HeLa [2] and 31.6 µM with A549 [3].
As to `COc1ccccc1C(=O)/C=C/c1ccc(/C=C/C(=O)c2cccc3c2C(=O)c2ccccc2C3=O)cc1`, the IC50 turned out to be 43.6 µM in the test with MRC5, 10.8 µM in [1], 2.7 µM with HeLa [2] and 28.1 µM in the test with A549 [3].
For the compound `O=C(/C=C/c1ccc(/C=C/C(=O)c2cccc3c2C(=O)c2ccccc2C3=O)cc1)c1ccccc1`, in the test on Escherichia coli [4], the inhibition result is “Active”. For the same compound, the inhibition entry with Escherichia coli [5] is “inactive”. Moreover, in the test with Calf thymus DNA [6], the Kb was found to be 2.65 ×10³ /M. Besides, the inhibition result in the test filed under Bos taurus [7] is “Dose-dependent effect”. Also, the IC50 was found to be 33.6 µM in the test with MRC5, 4.56 µM in test [1], 2.41 µM in the test with HeLa [2] and 26.2 µM in the test with A549 [3]. The result in the test with A549 [8], with HeLa [10], in the test with Calf thymus DNA [11], in the test on HeLa [14] and with HeLa [15] was Active. The Activity in the test with HeLa [9] amounted to 23.04%; with HeLa [12] it was 37.54%; with HeLa [16], 35.25%; with HeLa [17], 4.96%; in the test with HeLa [18], 34.02%; in the test on HeLa [21] it was 17.06%. For the same compound, the values for the Activity with HeLa [23] and with HeLa [24] were 4.66% and 36.61%, respectively. Further, the outcome in the test on Escherichia coli [13], in the test filed under Bos taurus [19] and in the test on A549 [22] was inactive. Besides, in the test listed under Bos taurus [20], the Imax was found to be 52%.
Turning to `COc1cccc(C(=O)/C=C/c2ccc(/C=C/C(=O)c3cccc4c3C(=O)c3ccccc3C4=O)cc2)c1`, the IC50 in the test on MRC5 was determined as 46.5 µM; in test [1], 16.7 µM; with HeLa [2], 2.77 µM; in the test on A549 [3] it was 30.9 µM.
For the compound `COc1ccc(C(=O)/C=C/c2ccc(/C=C/C(=O)c3cccc4c3C(=O)c3ccccc3C4=O)cc2)cc1`, the half-inhibitory concentration (IC50) in the test on MRC5 was 47.4 µM; in test [1] it was 34.1 µM; in the test on HeLa [2], 4.96 µM; with A549 [3], 47.7 µM.
In the case of `Cc1cccc(/C=C/C(=O)c2cccc3c2C(=O)c2ccccc2C3=O)c1`, the IC50 was 33.7 µM in the test on MRC5, 21.5 µM in test [1], 11.6 µM in the test with HeLa [2] and 33 µM in the test on A549 [3].
As for `Cc1cccc(C(=O)/C=C/c2ccc(/C=C/C(=O)c3cccc4c3C(=O)c3ccccc3C4=O)cc2)c1`, the IC50 is 52 µM in the test on MRC5, 11.8 µM in test [1], 2.45 µM with HeLa [2] and 33.7 µM in the test with A549 [3].
As for `Cc1ccccc1/C=C/C(=O)c1cccc2c1C(=O)c1ccccc1C2=O`, the half-maximal inhibitory concentration (IC50) in the test on MRC5 was 48.6 µM; in [1] it was 45.2 µM; in the test on HeLa [2], 12.1 µM; in the test on A549 [3] it was 44.6 µM.
For the compound `O=C(/C=C/c1ccccc1)c1cccc2c1C(=O)c1ccccc1C2=O`, the IC50 was found to be 46.4 µM in the test on MRC5, 31.3 µM in test [1], 14.8 µM in the test with HeLa [2] and 35.5 µM in the test on A549 [3].
Regarding `Cc1ccccc1C(=O)/C=C/c1ccc(/C=C/C(=O)c2cccc3c2C(=O)c2ccccc2C3=O)cc1`, the Kb in the test with Calf thymus DNA [6] turned out to be 1.36 ×10³ /M. Also, the inhibition result in the test filed under Bos taurus [7] is “Dose-dependent effect”. Moreover, the IC50 with MRC5 was 41.9 µM; in test [1], 3.13 µM; in the test on HeLa [2] it was 2.36 µM; in the test with A549 [3], 29.1 µM. Further, the outcome in the test with A549 [8], in the test with HeLa [10], in the test with Calf thymus DNA [11], with A549 [25], in the test with HeLa [14] and in the test on HeLa [15] was Active. Moreover, the Activity in the test with HeLa [9] worked out at 24.44%; in the test with HeLa [12], 38.76%; in the test on HeLa [16], 32.79%; with HeLa [17], 7.89%; in the test on HeLa [18], 31.12%; in the test on HeLa [21], 17.29%. Further, the Activity in the test on HeLa [23] was 5.56%; in the test on HeLa [24], 36.75%. Further, the result in the test with Escherichia coli [13], in the test listed under Bos taurus [19] and with A549 [22] was inactive. Further, in the test listed under Bos taurus [20], the Imax was determined as 61%.
As for `Cc1ccc(C(=O)/C=C/c2ccc(/C=C/C(=O)c3cccc4c3C(=O)c3ccccc3C4=O)cc2)cc1`, the IC50 is 38.5 µM with MRC5, 22.6 µM in [1], 2.64 µM in the test with HeLa [2] and 24.2 µM in the test on A549 [3].
On to `O=C(/C=C/c1ccc(Cl)cc1)c1cccc2c1C(=O)c1ccccc1C2=O`, for which the IC50 with MRC5 was 52 µM; in test [1], 47.2 µM; with HeLa [2], 33.1 µM; in the test on A549 [3], 35.3 µM.
Take `O=C(/C=C/c1ccc(/C=C/C(=O)c2cccc3c2C(=O)c2ccccc2C3=O)cc1)c1ccccc1[N+](=O)[O-]`: the Kb with Calf thymus DNA [6] was determined as 2.51 ×10³ /M. In addition, the inhibition result in the test filed under Bos taurus [7] is “Dose-dependent effect”. Moreover, the IC50 came to 48.8 µM with MRC5, 6.44 µM in test [1], 2.73 µM in the test on HeLa [2] and 28.8 µM with A549 [3]. Further, the outcome in the test with A549 [8], in the test with HeLa [10], in the test with Calf thymus DNA [11], in the test with A549 [25], in the test on HeLa [14] and in the test on HeLa [15] was Active. The Activity in the test on HeLa [9] was determined as 25.39%; in the test on HeLa [12], 41.5%; in the test with HeLa [16] it was 31.41%; in the test on HeLa [17] it was 5.14%; in the test with HeLa [18], 34.15%; in the test on HeLa [21] it was 17.66%. The values for the Activity with HeLa [23] and in the test on HeLa [24] were 4.65% and 35.58%, respectively. The result in the test with Escherichia coli [13], in the test listed under Bos taurus [19] and in the test on A549 [22] was inactive. In the test filed under Bos taurus [20], this compound had an Imax of 41%.
Consider `O=C(/C=C/c1ccc(/C=C/C(=O)c2cccc3c2C(=O)c2ccccc2C3=O)cc1)c1ccc(F)cc1`, for which the concentration for half-maximal inhibition (IC50) in the test on MRC5 was determined as 37 µM; in test [1] it was 10.6 µM; with HeLa [2] it was 2.62 µM; in the test with A549 [3], 36.3 µM.
On to `Cc1ccc(/C=C/C(=O)c2cccc3c2C(=O)c2ccccc2C3=O)cc1`, for which the IC50 is 50.5 µM in the test with MRC5, 48.2 µM in test [1], 34.1 µM in the test with HeLa [2] and 38.3 µM in the test on A549 [3].

These data come from ChEMBL document CHEMBL3352808, “Anthraquinone-chalcone hybrids: synthesis, preliminary antiproliferative evaluation and DNA-interaction studies” (Eur J Med Chem, 2015).
